Among the data in the supplement of paper PMC10307832 are relative viability values, retold here.

Common to all, as to experiment: relative viability (nuclei count vs DMSO), 5 days (fraction); higher = more cells survive
Compound in the experiment “AZD5582 + Phenformin”: C[C@@H](C(=O)N[C@@H](C1CCCCC1)C(=O)N2CCC[C@H]2C(=O)N[C@@H]3[C@@H](CC4=CC=CC=C34)OCC#CC#CCO[C@@H]5CC6=CC=CC=C6[C@@H]5NC(=O)[C@@H]7CCCN7C(=O)[C@H](C8CCCCC8)NC(=O)[C@H](C)NC)NC [AZD5582] + N=C(N)NC(=N)NCCc1ccccc1 [Phenformin] (partner 250 µM)
The method in brief:
(§1)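 Each reported value is a median over duplicate plates. It expresses relative viability: treated-well nuclei count divided by vehicle-well nuclei count. Lung cancer cell lines in 1536-well plates were dosed by pin tool a day after seeding, alone with one drug or with a fixed anchor-drug dose plus five library-drug doses (not always all listed) in √10 steps, and nuclei were counted after 5 days.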

Compound in experiment [1]: Cn1nnc2c(C(N)=O)ncn2c1=O [Temozolomide] + CS(=O)(=O)N1CCN(Cc2cc3nc(-c4cccc5[nH]ncc45)nc(N4CCOCC4)c3s2)CC1 [Pictilisib] (partner 1 µM)
The method in brief: as §1

Compound in experiment [2]: Cn1nnc2c(C(N)=O)ncn2c1=O [Temozolomide] + O=C(CCCCCCC(=O)Nc1ccccc1)NO [Vorinostat] (partner 1 µM)
The method in brief: as §1

Compound in experiment [3]: Cn1nnc2c(C(N)=O)ncn2c1=O [Temozolomide] + CC(=O)Nc1cccc(-n2c(=O)n(C3CC3)c(=O)c3c(Nc4ccc(I)cc4F)n(C)c(=O)c(C)c32)c1 [Trametinib] (partner 0.02 µM)
The essentials: as §1

As for A-427, the relative viability with AZD5582 + Phenformin (first compound 0.001581 µM) was 0.265; with AZD5582 + Phenformin (first compound 0.005 µM), 0.322; with AZD5582 + Phenformin (first compound 0.01581 µM), 0.248; with AZD5582 + Phenformin (first compound 0.05 µM) it was 0.206; in experiment [1] (first compound 0.2 µM), 0.816; in experiment [1] (first compound 0.6325 µM) it was 0.733. The relative viability in experiment [1] (first compound 2 µM) stood at 0.797; in experiment [1] (first compound 6.325 µM), 0.417; in experiment [1] (first compound 20 µM), 0.329; in experiment [2] (first compound 0.2 µM) it was 0.883; in experiment [2] (first compound 0.6325 µM), 0.896; in experiment [2] (first compound 2 µM) it was 0.837. Further, the relative viability in experiment [2] (first compound 6.325 µM) was 0.685; in experiment [2] (first compound 20 µM) it was 0.569; in experiment [3] (first compound 0.2 µM), 0.807; in experiment [3] (first compound 0.6325 µM), 0.711; in experiment [3] (first compound 2 µM), 0.69; in experiment [3] (first compound 6.325 µM), 0.502. Further, in experiment [3] (first compound 20 µM), the relative viability was found to be 0.458.

As for NCI-H1651, the relative viability with AZD5582 + Phenformin (first compound 0.001581 µM) amounted to 0.353; in the experiment with AZD5582 + Phenformin (first compound 0.005 µM), 0.339; in the experiment with AZD5582 + Phenformin (first compound 0.05 µM), 0.435; in experiment [1] (first compound 0.2 µM), 0.567; in experiment [1] (first compound 0.6325 µM), 0.681; in experiment [1] (first compound 2 µM), 0.654. Moreover, the relative viability in experiment [1] (first compound 6.325 µM) worked out at 0.588; in experiment [1] (first compound 20 µM), 0.613; in experiment [2] (first compound 0.2 µM), 0.582; in experiment [2] (first compound 0.6325 µM), 0.49; in experiment [2] (first compound 2 µM) it was 0.628; in experiment [2] (first compound 6.325 µM), 0.499. Moreover, the relative viability in experiment [2] (first compound 20 µM) was found to be 0.613; in experiment [3] (first compound 0.2 µM), 0.677; in experiment [3] (first compound 0.6325 µM), 0.834; in experiment [3] (first compound 2 µM), 0.818; in experiment [3] (first compound 6.325 µM), 0.77; in experiment [3] (first compound 20 µM), 0.84.

Take EPLC-272H: the relative viability with AZD5582 + Phenformin (first compound 0.001581 µM) came to 0.0525; with AZD5582 + Phenformin (first compound 0.01581 µM) it was 0.233; in the experiment with AZD5582 + Phenformin (first compound 0.05 µM), 0.0492; in experiment [1] (first compound 0.2 µM), 0.356; in experiment [1] (first compound 0.6325 µM), 0.35; in experiment [1] (first compound 2 µM) it was 0.334. For the same cell line, the relative viability turned out to be 0.298 in experiment [1] (first compound 6.325 µM); 0.326 in experiment [1] (first compound 20 µM); 0.386 in experiment [2] (first compound 0.2 µM); 0.545 in experiment [2] (first compound 0.6325 µM); 0.527 in experiment [2] (first compound 2 µM); 0.407 in experiment [2] (first compound 6.325 µM). Further, the relative viability was determined as 0.508 in experiment [2] (first compound 20 µM); 0.241 in experiment [3] (first compound 0.2 µM); 0.279 in experiment [3] (first compound 0.6325 µM); 0.338 in experiment [3] (first compound 2 µM); 0.324 in experiment [3] (first compound 6.325 µM); 0.277 in experiment [3] (first compound 20 µM).

With NCI-H2009, the relative viability with AZD5582 + Phenformin (first compound 0.001581 µM) is 0.445; with AZD5582 + Phenformin (first compound 0.005 µM), 0.534; with AZD5582 + Phenformin (first compound 0.01581 µM) it was 0.454; with AZD5582 + Phenformin (first compound 0.05 µM), 0.451; in experiment [1] (first compound 0.2 µM) it was 0.969; in experiment [1] (first compound 0.6325 µM), 0.891. Moreover, the relative viability stood at 0.893 in experiment [1] (first compound 2 µM); 0.638 in experiment [1] (first compound 6.325 µM); 0.87 in experiment [1] (first compound 20 µM); 0.826 in experiment [2] (first compound 0.2 µM); 0.737 in experiment [2] (first compound 0.6325 µM); 0.712 in experiment [2] (first compound 2 µM). The relative viability in experiment [2] (first compound 6.325 µM) was 0.706; in experiment [2] (first compound 20 µM) it was 0.684; in experiment [3] (first compound 0.2 µM), 0.279; in experiment [3] (first compound 0.6325 µM) it was 0.273; in experiment [3] (first compound 2 µM), 0.389; in experiment [3] (first compound 6.325 µM), 0.268. For the same cell line, the relative viability in experiment [3] (first compound 20 µM) was 0.265.

Turning to HCC-15, the relative viability came out at 0.391 in the experiment with AZD5582 + Phenformin (first compound 0.001581 µM); 0.437 with AZD5582 + Phenformin (first compound 0.005 µM); 0.31 in the experiment with AZD5582 + Phenformin (first compound 0.01581 µM); 0.402 in the experiment with AZD5582 + Phenformin (first compound 0.05 µM); 0.818 in experiment [1] (first compound 0.2 µM); 0.82 in experiment [1] (first compound 0.6325 µM). The relative viability in experiment [1] (first compound 2 µM) worked out at 0.737; in experiment [1] (first compound 6.325 µM), 0.693; in experiment [1] (first compound 20 µM), 0.786; in experiment [2] (first compound 0.2 µM) it was 0.79; in experiment [2] (first compound 0.6325 µM), 0.847; in experiment [2] (first compound 2 µM), 0.791. Also, the relative viability was found to be 0.695 in experiment [2] (first compound 6.325 µM); 0.806 in experiment [2] (first compound 20 µM); 0.38 in experiment [3] (first compound 0.2 µM); 0.392 in experiment [3] (first compound 0.6325 µM); 0.417 in experiment [3] (first compound 2 µM); 0.318 in experiment [3] (first compound 6.325 µM). Also, the relative viability in experiment [3] (first compound 20 µM) came to 0.385.

As for NCI-H3122, the relative viability with AZD5582 + Phenformin (first compound 0.001581 µM) was found to be 0.362; in the experiment with AZD5582 + Phenformin (first compound 0.005 µM), 0.376; in the experiment with AZD5582 + Phenformin (first compound 0.01581 µM), 0.354; with AZD5582 + Phenformin (first compound 0.05 µM), 0.19; in experiment [1] (first compound 0.2 µM), 0.521; in experiment [1] (first compound 0.6325 µM) it was 0.657. Besides, the relative viability worked out at 0.59 in experiment [1] (first compound 2 µM); 0.57 in experiment [1] (first compound 6.325 µM); 0.553 in experiment [1] (first compound 20 µM); 1.11 in experiment [2] (first compound 0.2 µM); 0.988 in experiment [2] (first compound 0.6325 µM); 1.17 in experiment [2] (first compound 2 µM). In addition, the relative viability in experiment [2] (first compound 6.325 µM) was 0.998; in experiment [2] (first compound 20 µM) it was 0.96; in experiment [3] (first compound 0.2 µM) it was 0.222; in experiment [3] (first compound 0.6325 µM), 0.291; in experiment [3] (first compound 2 µM), 0.246; in experiment [3] (first compound 6.325 µM), 0.251. Moreover, in experiment [3] (first compound 20 µM), the relative viability amounted to 0.242.

Regarding NCI-H838, the relative viability with AZD5582 + Phenformin (first compound 0.001581 µM) was 0.551; in the experiment with AZD5582 + Phenformin (first compound 0.005 µM), 0.703; with AZD5582 + Phenformin (first compound 0.05 µM) it was 0.594; in experiment [1] (first compound 0.2 µM) it was 0.45; in experiment [1] (first compound 0.6325 µM), 0.48; in experiment [1] (first compound 2 µM), 0.577. Also, the relative viability in experiment [1] (first compound 6.325 µM) came out at 0.446; in experiment [1] (first compound 20 µM) it was 0.584; in experiment [2] (first compound 0.2 µM) it was 0.751; in experiment [2] (first compound 0.6325 µM), 0.727; in experiment [2] (first compound 2 µM) it was 0.72; in experiment [2] (first compound 6.325 µM), 0.748. Further, the relative viability worked out at 0.739 in experiment [2] (first compound 20 µM); 0.498 in experiment [3] (first compound 0.2 µM); 0.559 in experiment [3] (first compound 0.6325 µM); 0.586 in experiment [3] (first compound 2 µM); 0.482 in experiment [3] (first compound 6.325 µM); 0.585 in experiment [3] (first compound 20 µM).
